In PMC12064607 (Clinical Pharmacokinetics, 2025) one finds EC50 and EC90 data, which are given here for two compounds.

Each structure is given as a SMILES string. Where two headings read alike, the source gives them in different places.

The subject of assay [1] is SARS-CoV-2 variants. The note with it: cited from earlier work.
In assay [2] the test system is SARS-CoV-2 variants. Nature of the assay: microbe, parasite or virus in culture.
Where [3] appears, read: Severe acute respiratory syndrome coronavirus 2, read-out: highest EC50 reported in the literature, corrected for plasma protein binding.
The mark [4] stands for this setting: Severe acute respiratory syndrome coronavirus 2, read-out: highest EC90 reported in the literature, corrected for plasma protein binding.
Setting [5] is: Severe acute respiratory syndrome coronavirus 2, read-out: lowest EC50 reported in the literature, corrected for plasma protein binding.
Where [6] appears, read: Severe acute respiratory syndrome coronavirus 2, read-out: lowest EC90 reported in the literature, corrected for plasma protein binding.

Usually EC50 stands for the concentration at which the effect is half-maximal. In general, EC90 refers to the point of the concentration-response curve where the effect stands at 90%.

As for `N#C[C@@]1(c2ccc3c(N)ncnn23)O[C@H](CO)[C@@H](O)[C@H]1O` [GS-441524], the 50% effective concentration (EC50) was 80 to 5600 nM with SARS-CoV-2 variants [1], 5710 nM in the assay on SARS-CoV-2 variants [2] (setting [3]) and 80 nM in the assay on SARS-CoV-2 variants [2] (setting [5]). Further, the 90% effect concentration (EC90) in the assay with SARS-CoV-2 variants [1] was 710 to 3900 nM; in the assay on SARS-CoV-2 variants [2] (setting [4]) it was 3980 nM; with SARS-CoV-2 variants [2] (setting [6]) it was 720 nM.
On to `CCC(CC)COC(=O)[C@H](C)N[P@](=O)(OC[C@H]1O[C@@](C#N)(c2ccc3c(N)ncnn23)[C@H](O)[C@@H]1O)Oc1ccccc1` [Remdesivir, reference compound], for which the EC50 in the assay with SARS-CoV-2 variants [1] is 1 to 1700 nM; in the assay on SARS-CoV-2 variants [2] (setting [3]) it was 14200 nM; with SARS-CoV-2 variants [2] (setting [5]) it was 8 nM. For the same compound, the concentration for an effect of 90% (EC90) in the assay with SARS-CoV-2 variants [1] is 22 to 3100 nM; in the assay on SARS-CoV-2 variants [2] (setting [4]) it was 25800 nM; with SARS-CoV-2 variants [2] (setting [6]), 180 nM.
